Data as given in EP4692071A1, “PHOTOCHROMIC COMPOUND, NAPHTHOL DERIVATIVE, CURABLE COMPOSITION, OPTICAL ARTICLE, LENS, AND EYEGLASS” (TOKUYAMA CORPORATION, priority 2023, dated 2024).
Values joined by “and” are separate entries in the source; they are usually repeats but may differ in a detail not shown here. Identical values can stand only once.

What was measured:
Type in all cases: physicochemical
[1] = Maximum absorption wavelength (λmax) after color development, spectrophotometer MCPD3000; conditions: after color development
Procedure: (§1) • [1] Maximum Absorption Wavelength (λmax): The maximum absorption wavelength after color development, measured using a spectrophotometer (instantaneous multichannel photodetector MCPD3000) manufactured by Otsuka Electronics Co., Ltd. was used as an indicator for the color tone during the color development. • [2] 23°C Color Optical Density (A23): A difference between an absorbancy measured after light irradiation at 23°C for 240 seconds {ε(240)} and an absorbancy without light irradiation ε(0) at the maximum absorption wavelength was used as an indicator for the color optical density. […] 35°C Color Optical Density (A35): A difference between an absorbancy measured after light irradiation at 35°C for 240 seconds {ε(240)} and an absorbancy without light irradiation ε(0) at the first and second absorption wavelengths was used as an indicator for the color optical density. […] 23°C color fading half-life [τ1/2 (sec.)]: A time required for the absorbancy of the sample at the maximum absorption wavelength to decrease to 1/2 of {ε(240)-ε(0)} when the light irradiation is terminated after the light irradiation at 23°C for 240 seconds, was used as an indicator for the color fading speed. The shorter this time, the higher the color fading speed. • [6] Residual rate (A90/A0×100): The obtained photochromic plastic lens was subjected to accelerated deterioration using a xenon weather meter X25 manufactured by Suga Test Instruments Co., Ltd. for 90 hours. Subsequently, the color optical density was evaluated before and after the test, then a color optical density before the test (A0) and a color optical density after the test (A90) were measured, and a ratio (A90/A0) was defined as a residual rate. The residual rate was used as an indicator for a color developing durability. The higher the residual rate, the higher the color developing durability.

[2] = High-temperature color development rate (A35/A23×100), temperature dependency
Procedure: as §1

[3] = Residual rate (A90/A0×100) after 90 h accelerated deterioration in xenon weather meter X25, color developing durability; conditions: after 90 h accelerated deterioration
Procedure: as §1

[4] = photochromic cured product, thickness 1 mm (kneading method)
[5] = photochromic laminate prepared by coating method

| Compound | Maximum absorption wavelength ([1]; binder sheet (binder method)) | Maximum absorption wavelength [1, 4] | Maximum absorption wavelength [1, 5] | A35/A23 *100 ([2]; binder sheet (binder method)) | A35/A23 *100 [2, 4] | A35/A23 *100 [2, 5] | Residual rate ([3]; binder sheet (binder method)) | Residual rate [3, 4] | Residual rate [3, 5] |
| --- | --- | --- | --- | --- | --- | --- | --- | --- | --- |
| CCC1(CC)c2cc(C)ccc2-c2c1c1c(c3cc(C)c(N4CCc5ccccc54)cc23)OC(c2ccc(C)cc2)(c2ccc(OC)cc2)C=C1 (stereo not drawn) [Formula (42A)] | 535 nm | 539 nm | 535 nm | 75% | 76% | 75% | 85% | 75% | 70% |
| CCCOc1ccc(C2(c3ccc(OCCC)cc3)C=Cc3c4c(c5cc(N6CCc7ccccc76)c(OC)cc5c3O2)-c2ccc(-c3ccc(C)cc3)cc2C42CCCCCCC2)cc1 [Formula (35A)] | 531 nm | 535 nm | 531 nm | 78% | 80% | 78% | 90% | 80% | 75% |
| CCCC1(C)c2cc(Oc3ccccc3)ccc2-c2c1c1c(c3cc(OC)c(N4CCc5ccccc54)cc23)OC(c2ccc(OC)cc2)(c2ccc3c(c2)CCO3)C=C1 (stereo not drawn) [Formula (70A)] | 535 nm | 540 nm | 536 nm | 77% | 78% | 77% | 82% | 77% | 71% |
| CCC1(CC)CCC2(CC1)c1cc(OC(F)(F)F)ccc1-c1c2c2c(c3cc(OC)c(N4CCc5ccccc54)cc13)OC(c1ccc(OC)cc1)(c1ccc(OCCCO[Si](C)(C)CC[Si](O[Si](C)(C)C)(O[Si](C)(C)C)O[Si](C)(C)C)cc1)C=C2 (stereo not drawn) [Formula (74A)] | 522 nm | 526 nm | 522 nm | 64% | 65% | 64% | 83% | 77% | 72% |
| CCCOc1ccc(C2(c3ccc(OC)cc3)C=Cc3c4c(c5cc(N6CCc7ccccc76)c(C)cc5c3O2)-c2ccc(-c3ccc(F)c(F)c3F)cc2C4(CCCCOC)CCCCOC)cc1F (stereo not drawn) [Formula (78A)] | 523 nm |  | 524 nm | 68% |  | 68% | 82% |  | 64% |
| COCCOCCOCCC1(CCOCCOCCOC)c2ccccc2-c2c1c1c(c3cc(OC)c(N4CCc5cc(F)ccc54)cc23)OC(c2ccc(OC)cc2)(c2ccc(OC)cc2)C=C1 [Formula (50A)] | 522 nm | 526 nm | 522 nm | 70% | 71% | 70% | 84% | 76% | 70% |
| COc1ccc(C2(c3ccc(N(c4ccccc4)c4ccccc4)cc3)C=Cc3c4c(c5cc(N6CCc7ccccc76)c(OC)cc5c3O2)-c2ccccc2C42CCC3(CCCCC3)CC2)cc1 (stereo not drawn) [Formula (57A)] | 548 nm |  | 548 nm | 70% |  | 70% | 80% |  | 65% |
| CCCOc1ccc(C2(c3ccc(OCCC)cc3)C=Cc3c4c(c5cc(N6CCc7cc(C(F)(F)F)ccc76)c(OC)cc5c3O2)-c2ccccc2C4(CCC)CCC)cc1 [Formula (54A)] |  |  | 592 nm and 486 nm |  |  | 66% and 67% |  |  | 69% |
| COc1ccc(C2(c3ccc(OC)c(OC)c3)C=Cc3c4c(c5cc(N6CCc7ccccc76)c(OC)cc5c3O2)-c2ccccc2C4(CCC(F)(F)F)CCC(F)(F)F)cc1 (stereo not drawn) [Formula (67A)] | 527 nm | 531 nm | 527 nm | 66% | 67% | 66% | 83% | 75% | 73% |
